# In paper PMC13065040 (PLOS One, 2026):
# Entries after “also recorded” stand apart in the source; their conditions may differ.
# Legend:
# [1] = biological target: T1, MMP-2 (Homo sapiens, UniProt P08253); experiment: MMP-2 inhibition assay (Enzo kit, OmniMMP RED fluorogenic substrate); format: biochemical
# T1 construct: purchased Enzo Life Sciences (MMP-2 drug discovery kit)
# Experimental: The MMP-2 inhibition assay was performed using the Enzo Life Sciences MMP-2 drug discovery kit. and the quenched fluorogenic substrate OmniMMP RED. Reference substrate was diluted to a final concentration of 5 μM, while the MMP-2 enzyme was diluted to 58 mU/µL, and the N-Isobutyl-N-(4-methoxyphenylsulfonyl)glycyl hydroxamic acid (NNGH) inhibitor was diluted to a concentration of 1/200 in assay buffer. […] The assay was performed using a black 96-well microplate. Fluorescence was measured at excitation/emission wavelengths of 545/576 nm, with a cutoff at 570 nm using Gen5 microplate reader (BioTeK, Shoreline, WA). Baseline fluorescence was recorded before adding NNGH inhibitor which was used as a positive control for MMP-2 inhibition. Reaction mixtures in the plate were incubated at 37 °C for 10 min, and fluorescence was measured at 10 min intervals for the first 30 min, then at 30 min intervals until 2 h had elapsed. […] Statistical analysis was performed using ANOVA with GraphPad Prism software, version 10.0.3.
# [2] = system: MMP-2; conditions: cited from earlier work
# Description: Ctx (Fig 2) is a 36-residue polypeptide from the scorpion Leiurus quinquestriatus. Ctx contains 8 cysteinyl residues, forming 4 disulfide bridges which help to stabilize its three-dimensional structure. […] However, conflicting data on the effects of Ctx on the glioma-specific chloride channel makes it difficu ... || Given the absence of change in melting temperature, the present result cannot confirm the notion that Ctx binds to the three fibronectin regions in the collagen binding domain [33].
# T1 sequence (P08253 110-465 limits assumed): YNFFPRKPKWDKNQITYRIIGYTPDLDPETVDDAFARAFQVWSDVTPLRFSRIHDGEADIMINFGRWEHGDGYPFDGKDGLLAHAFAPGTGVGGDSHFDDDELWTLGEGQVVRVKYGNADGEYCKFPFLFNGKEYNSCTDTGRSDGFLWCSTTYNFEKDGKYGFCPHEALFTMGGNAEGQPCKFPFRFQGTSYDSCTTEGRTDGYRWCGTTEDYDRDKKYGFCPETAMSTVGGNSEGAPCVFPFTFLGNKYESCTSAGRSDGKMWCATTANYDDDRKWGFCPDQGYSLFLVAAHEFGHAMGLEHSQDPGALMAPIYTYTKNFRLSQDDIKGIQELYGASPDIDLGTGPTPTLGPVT
substance,measurement,setting,value
Chlorotoxin [Ctx],"MMP-2 enzymatic activity, percent of control","[1]; Ctx 1 µM, replicate 1",118.933
same,"MMP-2 enzymatic activity, percent of control","[1]; Ctx 1 µM, replicate 2",112.076
same,"MMP-2 enzymatic activity, percent of control","[1]; Ctx 1 µM, replicate 3",102.494
same,"MMP-2 enzymatic activity, percent of control","[1]; Ctx 1 µM, replicate 4",91.6233
same,"MMP-2 enzymatic activity, percent of control","[1]; Ctx 1 µM, replicate 5",88.1016
same,"MMP-2 enzymatic activity, percent of control","[1]; Ctx 1 µM, replicate 6",107.77
same,"MMP-2 enzymatic activity, percent of control","[1]; Ctx 1 µM, replicate 7",112.009
same,"MMP-2 enzymatic activity, percent of control","[1]; Ctx 1 µM, replicate 8",115.93
same,"MMP-2 enzymatic activity, percent of control","[1]; Ctx 5 µM, replicate 1",109.471
same,"MMP-2 enzymatic activity, percent of control","[1]; Ctx 5 µM, replicate 2",117.657
same,"MMP-2 enzymatic activity, percent of control","[1]; Ctx 5 µM, replicate 3",107.159
same,"MMP-2 enzymatic activity, percent of control","[1]; Ctx 5 µM, replicate 4",113.75
same,"MMP-2 enzymatic activity, percent of control","[1]; Ctx 5 µM, replicate 5",100.089
same,"MMP-2 enzymatic activity, percent of control","[1]; Ctx 5 µM, replicate 6",108.86
same,"MMP-2 enzymatic activity, percent of control","[1]; Ctx 5 µM, replicate 7",121.511
same,"MMP-2 enzymatic activity, percent of control","[1]; Ctx 5 µM, replicate 8",108.966
same,"MMP-2 enzymatic activity, percent of control","[1]; Ctx 10 µM, replicate 1",86.2677
same,"MMP-2 enzymatic activity, percent of control","[1]; Ctx 10 µM, replicate 2",99.1052
same,"MMP-2 enzymatic activity, percent of control","[1]; Ctx 10 µM, replicate 3",97.4706
same,"MMP-2 enzymatic activity, percent of control","[1]; Ctx 10 µM, replicate 4",94.5071
same,"MMP-2 enzymatic activity, percent of control","[1]; Ctx 10 µM, replicate 5",60.0877
same,"MMP-2 enzymatic activity, percent of control","[1]; Ctx 10 µM, replicate 6",92.3409
same,"MMP-2 enzymatic activity, percent of control","[1]; Ctx 10 µM, replicate 7",113.684
same,"MMP-2 enzymatic activity, percent of control","[1]; Ctx 10 µM, replicate 8",106.8
same,"MMP-2 enzymatic activity, percent of control","[1]; Ctx 15 µM, replicate 1",86.879
same,"MMP-2 enzymatic activity, percent of control","[1]; Ctx 15 µM, replicate 2",110.627
same,"MMP-2 enzymatic activity, percent of control","[1]; Ctx 15 µM, replicate 3",103.344
same,"MMP-2 enzymatic activity, percent of control","[1]; Ctx 15 µM, replicate 4",104.062
same,"MMP-2 enzymatic activity, percent of control","[1]; Ctx 15 µM, replicate 5",43.5824
same,"MMP-2 enzymatic activity, percent of control","[1]; Ctx 15 µM, replicate 6",117.856
same,"MMP-2 enzymatic activity, percent of control","[1]; Ctx 15 µM, replicate 7",126.92
same,"MMP-2 enzymatic activity, percent of control","[1]; Ctx 15 µM, replicate 8",120.528
same,"MMP-2 enzymatic activity, percent of control","[1]; Ctx 20 µM, replicate 1",134.561
same,"MMP-2 enzymatic activity, percent of control","[1]; Ctx 20 µM, replicate 2",108.926
same,"MMP-2 enzymatic activity, percent of control","[1]; Ctx 20 µM, replicate 3",139.252
same,"MMP-2 enzymatic activity, percent of control","[1]; Ctx 20 µM, replicate 4",98.6135
same,"MMP-2 enzymatic activity, percent of control","[1]; Ctx 20 µM, replicate 5",53.8949
same,"MMP-2 enzymatic activity, percent of control","[1]; Ctx 20 µM, replicate 6",135.226
same,"MMP-2 enzymatic activity, percent of control","[1]; Ctx 20 µM, replicate 7",133.352
same,"MMP-2 enzymatic activity, percent of control","[1]; Ctx 20 µM, replicate 8",121.591
same,inhibition of MMP-2 enzymatic activity (Fig 10A),"[1]; Ctx at 1, 5, 10, 15 and 20 µM, compared to control inhibitor",did not inhibit; also recorded: not statistically significant
same,inhibition of MMP-2 enzymatic activity (Fig 10B),"[1]; peptides at 1 µM, 50 µM and 100 µM, one-way ANOVA vs control",not statistically significant
same,effect on the enzymatic activity of MMP-2,[2],no statistically significant effect
same,inhibition of MMP-2 enzymatic activity,[2],inhibits MMP-2 enzymatic activity
